Activity calls are given as the source filed them. How the calls were made is not given here.
Columns and labels:
Type in all cases: cell-based
[1] = molecular target: T1, Orexin/Hypocretin receptor type 1 (Homo sapiens) (UniProt O43613); experiment: (§1) Displacement of [3H]-[…] from human orexin 1 receptor expressed in CHO cells incubated for 2 hrs by whole cell radioligand binding assay
T1 sequence (whole entry): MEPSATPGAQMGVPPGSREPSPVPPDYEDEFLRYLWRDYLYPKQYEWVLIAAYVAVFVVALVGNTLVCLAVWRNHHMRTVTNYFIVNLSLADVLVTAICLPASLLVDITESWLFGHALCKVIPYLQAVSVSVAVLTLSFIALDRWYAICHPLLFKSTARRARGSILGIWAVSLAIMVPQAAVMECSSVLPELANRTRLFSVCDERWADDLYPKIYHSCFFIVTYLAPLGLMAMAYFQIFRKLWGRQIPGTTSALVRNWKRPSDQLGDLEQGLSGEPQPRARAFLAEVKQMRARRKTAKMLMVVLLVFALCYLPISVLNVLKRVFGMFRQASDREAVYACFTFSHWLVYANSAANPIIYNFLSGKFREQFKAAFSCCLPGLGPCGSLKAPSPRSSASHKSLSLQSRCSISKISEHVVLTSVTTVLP

[2] = species: Homo sapiens; experiment: (§2) Displacement of [3H]-EMPA from human orexin 2 receptor expressed in CHO cells incubated for 2 hrs by whole cell radioligand binding assay
[3] = molecular target: T2, Orexin/Hypocretin receptor type 1 (Homo sapiens, UniProt O43613); experiment: as §1
T2 sequence (O43613 whole entry): T1 sequence (whole entry)

[4] = as §2; details: for IC50: CHO

Compound	pKi [1]	pKi [2]	IC50 [3] [µM]	IC50 [4] [µM]	other results
Cc1cccc(-n2cc(C(=O)N3CCC[C@@H]([n+]4cc[nH]c4)C3)nn2)c1	inactive	inactive	–	–	–
Cc1cc([C@@H]2CCCCN2C(=O)c2ccc(-c3cc[nH]n3)cc2)no1	–	–	> 100	> 100	–
COc1ccc(CN2C(=O)c3ccccc3C2=O)cc1C(=O)OCc1cc(=O)n2ccsc2n1	inactive	inactive	–	–	–
COc1ccc(-n2nc(C(=O)NCCc3ccc(Cl)cc3)c3c4ccccc4n(C)c3c2=O)cc1	inactive	inactive	–	–	–
O=C1N=C(O)/C(=C\c2ccccc2OCc2ccccc2F)C(=O)N1c1ccc2c(c1)OCO2	–	–	> 100	–	–
Cc1cc(=O)oc2cc(OCC(=O)c3cccc4ccccc34)ccc12	inactive	inactive	–	–	–
COc1cccc(C(=O)COc2ccc3c(C)c(C)c(=O)oc3c2)c1	inactive	inactive	–	–	–
Cc1ccc(-n2nccn2)c(C(=O)N2CCN(c3nc4cc(Cl)ccc4o3)CC[C@H]2C)c1 [SUVOREXANT]	–	–	–	–	pKi [4]: 8.53
Cn1c(-c2ccccc2)c(C(=O)COC(=O)c2ccc3c(=O)n4c(nc3c2)CCC4)c2ccccc21	–	inactive	> 100	–	–
COc1cc([C@H]2c3c(oc4ccc(Cl)cc4c3=O)C(=O)N2Cc2ccccc2)ccc1O	inactive	inactive	–	–	–
O=C(c1ccc(OCc2cn3ccccc3n2)cc1)N1CCC[C@@H]1c1ccc2c(c1)OCCO2	–	–	> 100	> 100	–
O=S(=O)(c1ccc(-c2noc(-c3ccco3)n2)cc1)N1CCCCC1	inactive	inactive	–	–	–
O=C1c2oc3ccc(Cl)cc3c(=O)c2[C@H](c2cccc([N+](=O)[O-])c2)N1Cc1ccccc1	inactive	inactive	–	–	–
CN(C)S(=O)(=O)c1cccc(C(=O)N(CCc2ccccc2)c2nc3ccccc3s2)c1	–	–	–	> 100	–
O=C(c1cnc(-c2ccccc2)s1)N1CCC[C@H]1c1ccncc1	–	–	> 100	> 100	–
CN(Cc1[nH]cc[n+]1C)C(=O)CCCc1c[nH]c2ccccc12	–	–	–	> 100	–
Cc1ccc(C(=O)[C@H](C)Oc2cccc(N3C(=O)C4C5C=CC(C5)C4C3=O)c2)cc1 (stereo partly drawn)	–	–	> 100	> 100	–
COc1cc(=O)n2c(c1C(=O)N(C)[C@H](C)c1ccco1)CCN(C(=O)C1(c3ccccc3)CC1)CC2	–	–	> 100	> 100	–
COc1ccc2cc(CN(C)C(=O)COC(=O)c3c(F)cccc3F)ccc2c1	–	–	> 100	–	–
Cn1ccc2c(C(=O)N3CCN(Cc4cscn4)CC3)cccc21	inactive	inactive	–	–	–
COc1cc2cc(C(=O)N3CCN(Cc4ccc5c(c4)OCO5)CC3)c(=O)oc2cc1OC	inactive	inactive	–	–	–
O=C(c1ccc(Cl)c(N2CCCC2=O)c1)N1CCN(Cc2ccc3c(c2)CCO3)CC1	inactive	inactive	–	–	–
O=C(OCCCn1c(=O)[nH]c2ccccc21)c1ccc2c(c1)C(=O)N(c1ccc(Cl)cc1)C2=O	inactive	inactive	–	–	–
O=C1N(Cc2ccc(F)cc2)C[C@H]2CN(Cc3nccs3)CCN12	inactive	inactive	–	–	–
Cc1ccc2c(c1)C(=O)N(CCC(=O)N1CCCc3ccccc31)C2=O	inactive	inactive	–	–	–
COc1cccc([C@H]2c3c(oc4ccccc4c3=O)C(=O)N2Cc2ccccc2)c1	inactive	inactive	–	–	–

Compound	pKi [1]	pKi [2]	IC50 [3] [µM]	IC50 [4] [µM]	other results
O=C(CCCn1cnc2ccccc2c1=O)NCc1ccccn1	inactive	inactive	–	–	–
CN(CCc1cccc2ccccc12)C(=O)c1c[nH]c(=O)c(Cl)c1	–	–	–	–	Ki [3]: 14.8 µM; pKi [4]: 4.89
Cc1noc(CN2CCN(C(=O)c3cc4ccccn4c3)CC2)n1	inactive	inactive	–	–	–
Cc1nn(-c2ccccc2)c(C)c1C(=O)O[C@@H](C(N)=O)c1ccccc1	inactive	inactive	–	–	–
Cc1nc(-c2ncccn2)sc1C(=O)OCCn1c(C)nc2ccccc21	–	–	–	> 100	–
COc1cccc(-c2nc([C@@H]3CC(=O)N(Cc4ccccc4)C3)no2)c1	–	–	> 100	> 100	–
C[C@H](Cc1cnccn1)n1cc(-c2ccnc3ccccc23)nn1	inactive	inactive	–	–	–
CC(=O)N1N=C(c2cn(C(C)=O)c3ccccc23)O[C@@H]1c1cccnc1	–	–	> 100	> 100	–
CN(Cc1[nH]cc[n+]1C)C(=O)C[C@H]1CN(Cc2ccccc2)CCO1	–	inactive	> 100	–	–
CCc1cc2c(=O)c(-c3ccc4c(c3)OCCCO4)coc2cc1OC(=O)N1CCOCC1	inactive	inactive	–	–	–
O=C(c1ccc(Cl)c(N2CCCC2=O)c1)N1CCN(Cc2cc(=O)n3ccsc3n2)CC1	inactive	inactive	–	–	–
O=C(CCCN1C(=O)c2cccc3cccc(c23)C1=O)Oc1ccc(F)cc1	inactive	inactive	–	–	–
Cc1ccc(C(=O)N2CCN(Cc3nnc(-c4ccco4)o3)CC2)cc1F	–	–	–	> 100	–
Cc1nc(COc2ccc(C(=O)N3CCC[C@@H]3c3ccc4c(c3)OCCO4)cc2)cs1	–	–	> 100	–	–
COc1cc([C@H]2c3c(oc4ccccc4c3=O)C(=O)N2Cc2ccc(F)cc2)cc(OC)c1OC	inactive	inactive	–	–	–
O=C(c1cc(S(=O)(=O)N2CCOCC2)ccc1Cl)N1CCn2c1nc1ccccc12	–	–	> 100	> 100	–
O=C1/C(=C/c2ccc(N3CCOCC3)cc2)c2ccccc2N1c1ccccc1	–	–	–	–	Ki [3]: 17.8 µM
CCN(Cc1cccnc1)C(=O)CN(c1ccc(OC)nc1)S(=O)(=O)c1ccccc1C	–	–	–	–	pKi [4]: 8.17
COc1cccc(-c2nc(C(=O)OCc3cccnc3)c(C)[nH]2)c1	–	–	–	–	Ki [3]: 14.8 µM; pKi [4]: 4.64
O=C1CCCN1c1cccc(C(=O)N(Cc2ccc(F)cc2)C2CC2)c1	–	–	–	> 100	–
O=C(Cc1ccc(Cl)cc1)N1CCC(c2noc(-c3ccccn3)n2)CC1	–	–	–	> 100	–
Cc1[nH]c2ccc(C(=O)N3CCN(Cc4ccc5c(c4)OCO5)CC3)cc2c1C	–	–	> 100	> 100	–
O=C(c1cn(Cc2ccc(F)cc2)cc2c(=O)n(-c3ccccc3)nc1-2)N1CCc2ccccc21	inactive	inactive	–	–	–
O=C1c2ccccc2C(=O)N1CCc1nc(-c2cnccn2)no1	–	–	–	> 100	–
COc1cc(=O)n2c(c1C(=O)N(C)Cc1nonc1C)CCN(C(=O)C1(c3ccccc3)CC1)CC2	–	–	> 100	> 100	–
O=C1Nc2cc(C(=O)N3CCN(Cc4ccc5c(c4)OCO5)CC3)ccc2N2CCCC[C@@H]12	–	–	> 100	> 100	–

Compound	pKi [1]	pKi [2]	IC50 [3] [µM]	IC50 [4] [µM]	other results
O=S(=O)(c1ccc2c(c1)OCCO2)N1CCN(Cc2nc(-c3ccco3)cs2)CC1	–	inactive	> 100	–	–
Cc1nc(C(=O)N2CCC[C@H]2Cc2nnc(-c3ccccc3)o2)c(-c2ccccc2F)s1	–	–	–	–	Ki [3]: 0.00389 µM; pKi [4]: 6.7
O=C(/C=C/c1cccc(F)c1)N1CCOc2c(cc(-c3cccnc3)cc2OC[C@H]2CCCCO2)C1	–	–	–	> 100	–
Cc1nc(-c2ccc(Cl)c(S(=O)(=O)N3CCC[C@@H](C(=O)N4CCc5ccccc54)C3)c2)no1	–	–	> 100	> 100	–
Cc1nc(-c2cc(C)n(CC(=O)N3CCC[C@H]3c3ccncc3)c2C)cs1	inactive	–	–	–	–
Cc1ccc([C@H](CCO)n2cc(-c3ccnc4ccccc34)nn2)cc1	–	–	> 100	> 100	–
O=C(c1cc2c(s1)-c1ccccc1CC2)N1CCN(Cc2cc(=O)n3ccsc3n2)CC1	–	–	> 100	> 100	–
c1ccc(-c2n[nH]cc2-c2nc3c(cnn3Cc3ccncc3)[nH]2)cc1	–	–	–	–	Ki [3]: 24.5 µM; pKi [4]: 4.82
COc1cccc(CN2CC3(CCN(Cc4nccs4)CC3)CC2=O)c1	–	–	–	> 100	–
Cc1ccc2c(C)c(C(=O)N3CCN(Cc4ccccn4)CC3)oc2c1C	–	–	> 100	> 100	–
CN(Cc1[nH]cc[n+]1Cc1ccccc1)C(=O)c1cccc2cc[nH][n+]12	–	–	–	> 100	–
O=C(c1ccccc1)[C@H]1CCCN(C(=O)CCc2nc(-c3ccco3)no2)C1	–	–	> 100	–	–
O=C(CCC(=O)c1ccc2c(c1)OCCO2)Nc1cccc(C#Cc2ccccn2)c1	–	–	> 100	> 100	–
Cc1nc(/C=C/C(=O)Oc2ccc3c(=O)c(-c4c(F)cccc4Cl)c(C)oc3c2)cs1	–	–	> 100	> 100	–
COc1ccc2c(c1)c(CC(=O)NCc1ccccn1)c(C)n2C(=O)c1ccc(Cl)cc1	–	–	> 5	> 5	–
O=S(=O)(c1cc(F)cc(F)c1)N1CCN(Cc2csc(-c3ccco3)n2)CC1	–	–	> 100	> 100	–
CN1C(=O)c2ccc(C(=O)OCCCn3c(=O)[nH]c4ccccc43)cc2C1=O	–	–	> 100	> 100	–
O=C(CCCn1nnc2ccccc2c1=O)NC1Cc2ccccc2C1	–	–	> 100	–	pKi [4]: 4.4
CC1(C)OC[C@H](NC(=O)Nc2ccc(Br)cc2Br)[C@H](c2ccccc2)O1	–	–	–	–	Ki [3]: 1.35 µM; pKi [4]: 8.18
CCC(=O)N1CCCN([C@@H](C)C(=O)Nc2ccccc2C(C)=O)CC1	–	–	–	> 100	–
Cc1cccc(C)c1NC(=O)CCCN1C(=O)c2cccnc2C1=O	–	–	–	–	Ki [3]: 33.9 µM; pKi [4]: 4.56
C[C@@H]1CN(c2cccc(Cl)c2)C(=O)CN1C(=O)c1cccc2ccccc12	–	–	> 100	> 100	–
Fc1ccccc1COc1cccc(CNCc2ccccn2)c1	–	–	> 100	–	pKi [4]: 4.28
Cc1nn(-c2ccccc2)c(N2CCCC2)c1/C=N/n1cnc2c(cnn2-c2ccccc2)c1=O	–	–	> 100	> 100	–
